Measurements as given in the kinase profiling compilation of Christmann-Franck et al. (2016).

Experiments:
Settings in all cases: compound 10.0 µM
ACVR1B (human) = ACVR1B (human) (UniProt P36896)
ADRBK1 (human) = ADRBK1 (human) (UniProt P25098)
AKT3 (human) = AKT3 (human) (UniProt Q9Y243)
CAMK4 (human) = CAMK4 (human) (UniProt Q16566)
CDK4 CCND1 (human) = CDK4 CCND1 (human) (UniProt P11802+P24385)
CHEK2 (human) = CHEK2 (human) (UniProt O96017)
DAPK1 (human) = DAPK1 (human) (UniProt P53355)
DDR2 (human) = DDR2 (human) (UniProt Q16832)
EPHA2 (human) = EPHA2 (human) (UniProt P29317)
EPHA5 (human) = EPHA5 (human) (UniProt P54756)
EPHA8 (human) = EPHA8 (human) (UniProt P29322)
EPHB4 (human) = EPHB4 (human) (UniProt P54760)
Chain of EPHB4 (human) (P54760 whole entry, looked up): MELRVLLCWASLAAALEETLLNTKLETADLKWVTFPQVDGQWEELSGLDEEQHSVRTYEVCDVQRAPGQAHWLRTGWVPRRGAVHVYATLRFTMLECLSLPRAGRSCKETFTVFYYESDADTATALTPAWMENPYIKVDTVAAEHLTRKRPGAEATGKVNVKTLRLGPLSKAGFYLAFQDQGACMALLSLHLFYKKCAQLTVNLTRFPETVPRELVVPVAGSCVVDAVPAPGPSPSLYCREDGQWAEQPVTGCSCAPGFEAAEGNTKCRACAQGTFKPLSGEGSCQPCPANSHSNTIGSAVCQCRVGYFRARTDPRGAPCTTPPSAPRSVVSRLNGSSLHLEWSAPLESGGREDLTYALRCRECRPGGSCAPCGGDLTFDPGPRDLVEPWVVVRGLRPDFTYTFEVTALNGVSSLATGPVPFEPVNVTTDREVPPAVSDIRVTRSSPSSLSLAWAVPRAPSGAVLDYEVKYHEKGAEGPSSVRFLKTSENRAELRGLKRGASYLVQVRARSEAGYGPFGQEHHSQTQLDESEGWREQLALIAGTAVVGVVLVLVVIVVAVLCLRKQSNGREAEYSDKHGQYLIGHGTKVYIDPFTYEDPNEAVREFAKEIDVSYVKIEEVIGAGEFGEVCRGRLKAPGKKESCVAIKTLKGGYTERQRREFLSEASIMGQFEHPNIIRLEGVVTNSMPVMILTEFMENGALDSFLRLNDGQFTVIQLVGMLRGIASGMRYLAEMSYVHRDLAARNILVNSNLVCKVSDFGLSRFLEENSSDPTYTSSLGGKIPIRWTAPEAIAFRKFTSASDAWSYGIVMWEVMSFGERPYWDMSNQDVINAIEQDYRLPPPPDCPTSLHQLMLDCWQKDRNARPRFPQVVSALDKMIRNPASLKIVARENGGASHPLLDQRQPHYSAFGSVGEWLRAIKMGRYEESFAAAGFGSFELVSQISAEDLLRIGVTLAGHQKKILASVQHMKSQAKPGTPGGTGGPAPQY

GRK4 (human) = GRK4 (human) (UniProt P32298)
HIPK3 (human) = HIPK3 (human) (UniProt Q9H422)
LCK (human) = LCK (human) (UniProt P06239)
Chain of LCK (human) (P06239 whole entry, looked up): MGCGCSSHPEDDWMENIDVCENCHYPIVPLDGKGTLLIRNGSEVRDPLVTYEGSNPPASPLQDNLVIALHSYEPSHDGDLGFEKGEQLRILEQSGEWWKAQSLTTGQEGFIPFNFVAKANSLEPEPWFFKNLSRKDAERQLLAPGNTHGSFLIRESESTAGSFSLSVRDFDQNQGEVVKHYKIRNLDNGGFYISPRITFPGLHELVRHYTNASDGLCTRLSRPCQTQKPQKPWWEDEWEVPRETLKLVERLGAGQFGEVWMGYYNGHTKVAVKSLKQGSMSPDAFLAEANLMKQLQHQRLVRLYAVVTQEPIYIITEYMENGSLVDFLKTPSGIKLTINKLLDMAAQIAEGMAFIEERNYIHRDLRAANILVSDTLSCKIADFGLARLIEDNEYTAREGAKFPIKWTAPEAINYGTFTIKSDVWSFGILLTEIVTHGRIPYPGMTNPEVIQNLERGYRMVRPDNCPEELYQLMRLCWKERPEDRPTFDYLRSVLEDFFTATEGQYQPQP

MAP2K1 (human) = MAP2K1 (human) (UniProt Q02750)
MAP2K2 (human) = MAP2K2 (human) (UniProt P36507)
MAP3K11 (human) = MAP3K11 (human) (UniProt Q16584)
MAP3K14 (human) = MAP3K14 (human) (UniProt Q99558)
MAP3K5 (human) = MAP3K5 (human) (UniProt Q99683)
MAPK11 (human) = MAPK11 (human) (UniProt Q15759)
Chain of MAPK11 (human) (Q15759 whole entry, looked up): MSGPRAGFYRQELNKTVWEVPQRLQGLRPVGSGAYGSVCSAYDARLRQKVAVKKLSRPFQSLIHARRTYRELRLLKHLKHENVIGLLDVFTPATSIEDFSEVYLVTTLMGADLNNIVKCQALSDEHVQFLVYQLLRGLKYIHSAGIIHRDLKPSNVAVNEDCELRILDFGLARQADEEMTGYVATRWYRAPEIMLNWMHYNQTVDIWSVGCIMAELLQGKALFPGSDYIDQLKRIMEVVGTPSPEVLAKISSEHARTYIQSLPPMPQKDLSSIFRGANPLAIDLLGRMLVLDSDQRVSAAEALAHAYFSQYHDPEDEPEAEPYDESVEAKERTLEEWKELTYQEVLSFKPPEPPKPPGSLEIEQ

MAPK13 (human) = MAPK13 (human) (UniProt O15264)
MAPK3 (human) = MAPK3 (human) (UniProt P27361)
Chain of MAPK3 (human) (P27361 whole entry, looked up): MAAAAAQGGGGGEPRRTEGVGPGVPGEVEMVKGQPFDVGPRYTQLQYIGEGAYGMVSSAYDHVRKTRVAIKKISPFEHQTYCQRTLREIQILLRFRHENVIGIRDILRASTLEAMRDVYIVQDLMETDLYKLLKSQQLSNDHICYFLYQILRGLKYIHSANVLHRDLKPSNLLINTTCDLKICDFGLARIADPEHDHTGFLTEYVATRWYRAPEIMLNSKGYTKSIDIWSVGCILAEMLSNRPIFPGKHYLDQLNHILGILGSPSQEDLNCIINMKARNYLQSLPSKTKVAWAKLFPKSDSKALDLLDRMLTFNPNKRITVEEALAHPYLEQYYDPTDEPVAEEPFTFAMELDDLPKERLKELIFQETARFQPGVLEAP

MET (human) = MET (human) (UniProt P08581)
MKNK2 (human) = MKNK2 (human) (UniProt Q9HBH9)
MLTK (human) = MLTK (human) (UniProt Q9NYL2)
NEK3 (human) = NEK3 (human) (UniProt P51956)
PAK1 (human) = PAK1 (human) (UniProt Q13153)
PDGFRB (human) = PDGFRB (human) (UniProt P09619)
PDPK1 (human) = PDPK1 (human) (UniProt O15530)
PLK1 (human) = PLK1 (human) (UniProt P53350)
PRKCA (human) = PRKCA (human) (UniProt P17252)
PRKCD (human) = PRKCD (human) (UniProt Q05655)
Chain of PRKCD (human) (Q05655 whole entry, looked up): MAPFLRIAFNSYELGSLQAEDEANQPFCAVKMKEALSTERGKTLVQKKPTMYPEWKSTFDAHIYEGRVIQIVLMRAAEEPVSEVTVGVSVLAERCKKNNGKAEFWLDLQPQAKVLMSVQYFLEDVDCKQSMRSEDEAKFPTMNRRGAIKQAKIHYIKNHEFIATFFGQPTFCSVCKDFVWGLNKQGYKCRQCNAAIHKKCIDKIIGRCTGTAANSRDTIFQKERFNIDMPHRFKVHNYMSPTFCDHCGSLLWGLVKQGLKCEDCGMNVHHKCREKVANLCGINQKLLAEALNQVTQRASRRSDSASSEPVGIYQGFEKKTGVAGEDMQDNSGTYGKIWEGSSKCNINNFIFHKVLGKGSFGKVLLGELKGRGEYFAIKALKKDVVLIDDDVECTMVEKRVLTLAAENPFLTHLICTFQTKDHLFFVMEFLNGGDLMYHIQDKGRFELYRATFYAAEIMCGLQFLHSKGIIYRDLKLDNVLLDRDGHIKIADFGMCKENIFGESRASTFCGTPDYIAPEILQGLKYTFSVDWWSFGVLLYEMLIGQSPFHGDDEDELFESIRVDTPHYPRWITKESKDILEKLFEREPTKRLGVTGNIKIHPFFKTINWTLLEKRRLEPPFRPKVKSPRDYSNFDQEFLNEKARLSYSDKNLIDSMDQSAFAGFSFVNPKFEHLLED

PRKCE (human) = PRKCE (human) (UniProt Q02156)
PRKCQ (human) = PRKCQ (human) (UniProt Q04759)
RIPK2 (human) = RIPK2 (human) (UniProt O43353)
Chain of RIPK2 (human) (O43353 whole entry, looked up): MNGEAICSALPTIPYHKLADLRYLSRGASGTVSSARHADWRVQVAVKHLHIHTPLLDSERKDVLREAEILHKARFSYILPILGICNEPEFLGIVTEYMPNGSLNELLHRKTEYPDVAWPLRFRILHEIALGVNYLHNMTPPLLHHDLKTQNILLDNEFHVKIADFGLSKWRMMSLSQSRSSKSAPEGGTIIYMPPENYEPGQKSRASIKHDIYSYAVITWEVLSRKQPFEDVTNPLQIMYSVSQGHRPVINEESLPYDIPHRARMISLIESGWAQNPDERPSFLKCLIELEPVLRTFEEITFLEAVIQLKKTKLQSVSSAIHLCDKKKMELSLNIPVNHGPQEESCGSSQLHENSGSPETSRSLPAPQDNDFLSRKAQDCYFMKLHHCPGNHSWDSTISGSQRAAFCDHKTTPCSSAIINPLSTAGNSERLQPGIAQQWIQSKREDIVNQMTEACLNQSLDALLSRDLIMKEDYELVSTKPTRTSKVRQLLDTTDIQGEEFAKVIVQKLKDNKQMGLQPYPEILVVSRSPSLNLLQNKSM

SGK3 (human) = SGK3 (human) (UniProt Q96BR1)
STK10 (human) = STK10 (human) (UniProt O94804)
STK38 (human) = STK38 (human) (UniProt Q15208)
STK4 (human) = STK4 (human) (UniProt Q13043)
Chain of STK4 (human) (Q13043 whole entry, looked up): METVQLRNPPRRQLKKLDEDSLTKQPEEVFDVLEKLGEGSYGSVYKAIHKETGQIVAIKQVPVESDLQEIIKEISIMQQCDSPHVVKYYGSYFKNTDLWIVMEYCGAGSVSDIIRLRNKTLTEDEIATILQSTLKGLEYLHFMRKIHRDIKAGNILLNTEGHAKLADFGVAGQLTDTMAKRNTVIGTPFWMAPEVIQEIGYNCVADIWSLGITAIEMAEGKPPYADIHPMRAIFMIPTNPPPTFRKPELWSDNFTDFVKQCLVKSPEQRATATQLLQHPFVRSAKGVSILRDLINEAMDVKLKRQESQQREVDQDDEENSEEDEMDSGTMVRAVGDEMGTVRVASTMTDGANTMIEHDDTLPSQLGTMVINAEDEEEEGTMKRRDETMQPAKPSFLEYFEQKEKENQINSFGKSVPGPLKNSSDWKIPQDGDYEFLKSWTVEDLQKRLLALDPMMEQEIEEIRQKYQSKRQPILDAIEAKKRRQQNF

TAOK3 (human) = TAOK3 (human) (UniProt Q9H2K8)
TNK2 (human) = TNK2 (human) (UniProt Q07912)
WNK2 (human) = WNK2 (human) (UniProt Q9Y3S1)
ZAP70 (human) = ZAP70 (human) (UniProt P43403)

Chain of CHEK2 (human) (O96017 whole entry, looked up): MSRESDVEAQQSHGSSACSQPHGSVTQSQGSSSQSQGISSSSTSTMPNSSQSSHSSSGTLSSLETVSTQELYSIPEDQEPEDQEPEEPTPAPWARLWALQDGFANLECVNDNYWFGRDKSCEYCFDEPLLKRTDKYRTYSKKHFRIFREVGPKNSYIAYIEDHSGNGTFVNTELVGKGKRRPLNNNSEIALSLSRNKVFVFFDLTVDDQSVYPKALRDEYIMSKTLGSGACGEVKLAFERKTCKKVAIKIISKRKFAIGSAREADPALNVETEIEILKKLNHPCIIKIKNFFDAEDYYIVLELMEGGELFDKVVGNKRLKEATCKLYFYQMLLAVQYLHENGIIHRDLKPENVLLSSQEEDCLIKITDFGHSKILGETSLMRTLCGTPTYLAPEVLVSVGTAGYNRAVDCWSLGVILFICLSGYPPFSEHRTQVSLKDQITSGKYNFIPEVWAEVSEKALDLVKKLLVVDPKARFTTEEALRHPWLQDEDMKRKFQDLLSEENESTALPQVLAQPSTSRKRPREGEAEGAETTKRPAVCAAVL
Chain of ACVR1B (human) (P36896 whole entry, looked up): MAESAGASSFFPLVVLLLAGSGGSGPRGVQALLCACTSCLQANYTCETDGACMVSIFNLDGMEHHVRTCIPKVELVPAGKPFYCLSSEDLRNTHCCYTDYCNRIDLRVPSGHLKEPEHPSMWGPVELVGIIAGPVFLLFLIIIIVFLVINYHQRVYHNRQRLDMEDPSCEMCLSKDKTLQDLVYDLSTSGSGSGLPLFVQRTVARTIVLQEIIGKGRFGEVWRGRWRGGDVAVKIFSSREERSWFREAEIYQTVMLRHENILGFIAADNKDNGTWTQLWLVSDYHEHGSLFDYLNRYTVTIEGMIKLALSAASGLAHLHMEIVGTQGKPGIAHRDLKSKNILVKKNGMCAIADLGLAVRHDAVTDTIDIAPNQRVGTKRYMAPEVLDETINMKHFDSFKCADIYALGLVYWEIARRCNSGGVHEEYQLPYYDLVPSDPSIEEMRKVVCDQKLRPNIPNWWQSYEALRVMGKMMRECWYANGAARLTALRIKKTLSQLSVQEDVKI

residual activity (ACVR1B (human)): 98.5%
residual activity (ADRBK1 (human)): 108%
residual activity (AKT3 (human)): 94%
residual activity (CAMK4 (human)): 87.5%
residual activity (CDK4 CCND1 (human)): 94.5%
residual activity (CHEK2 (human)): 71%
residual activity (DAPK1 (human)): 96.5%
residual activity (DDR2 (human)): 102%
residual activity (EPHA2 (human)): 106%
residual activity (EPHA5 (human)): 77%
residual activity (EPHA8 (human)): 89%
residual activity (EPHB4 (human)): 95%
residual activity (GRK4 (human)): 98%
residual activity (HIPK3 (human)): 100%
residual activity (LCK (human)): 99%
residual activity (MAP2K1 (human)): 102%
residual activity (MAP2K2 (human)): 102%
residual activity (MAP3K11 (human)): 95%
residual activity (MAP3K14 (human)): 99%
residual activity (MAP3K5 (human)): 102%
residual activity (MAPK11 (human)): 102%
residual activity (MAPK13 (human)): 95%
residual activity (MAPK3 (human)): 99%
residual activity (MET (human)): 128%
residual activity (MKNK2 (human)): 98%
residual activity (MLTK (human)): 96%
residual activity (NEK3 (human)): 107%
residual activity (PAK1 (human)): 106%
residual activity (PDGFRB (human)): 102%
residual activity (PDPK1 (human)): 100%
residual activity (PLK1 (human)): 98.5%
residual activity (PRKCA (human)): 106%
residual activity (PRKCD (human)): 102%
residual activity (PRKCE (human)): 99.5%
residual activity (PRKCQ (human)): 99.5%
residual activity (RIPK2 (human)): 95.5%
residual activity (SGK3 (human)): 105%
residual activity (STK10 (human)): 90%
residual activity (STK38 (human)): 97%
residual activity (STK4 (human)): 97%
residual activity (TAOK3 (human)): 101%
residual activity (TNK2 (human)): 93.5%
residual activity (WNK2 (human)): 93%
residual activity (ZAP70 (human)): 97.5%
Compound: CC[C@H](C)n1cc(C)c2c(C(=O)NCc3c(C)cc(C)[nH]c3=O)cc(-c3ccc(N4CCNCC4)nc3)cc21
